Source: PubChem BioAssay (NCI)
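Step 1: Grow cells in 96-well plates. Step 2: Expose to compound for 48 hours at 5 concentrations. Step 3: Interpolate endpoints linearly; if unreached, use highest concentration. TGI denotes the concentration required for complete inhibition of growth.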 Where a SMILES comes first, the peptide text is derived from it. [ ]: non-standard residue; d: D form. The star is where a group is joined. AllylGly = C=CC[CH](N)C(=O)O; Boc = CC(C)(C)OC(=O)*; OtBu = CC(C)(C)O*

Columns and labels:
Assay in all cases: NCI-60 cell line screen, 48 h
BT-549 breast = system: BT-549 breast
HL-60(TB) leukemia = system: HL-60(TB) leukemia
SR leukemia = system: SR leukemia
SF-268 CNS = system: SF-268 CNS
OVCAR-8 ovarian = system: OVCAR-8 ovarian
NCI/ADR-RES ovarian = system: NCI/ADR-RES ovarian
SK-MEL-28 melanoma = system: SK-MEL-28 melanoma
DU-145 prostate = system: DU-145 prostate
NCI-H522 lung = system: NCI-H522 lung
SF-539 CNS = system: SF-539 CNS

Structure (SMILES) | TGI (BT-549 breast) [µM] | TGI (HL-60(TB) leukemia) [µM] | TGI (SR leukemia) [µM] | TGI (SF-268 CNS) [µM] | TGI (OVCAR-8 ovarian) [µM] | TGI (NCI/ADR-RES ovarian) [µM] | TGI (SK-MEL-28 melanoma) [µM] | TGI (DU-145 prostate) [µM] | TGI (NCI-H522 lung) [µM] | TGI (SF-539 CNS) [µM]
Cc1cccc2c1Oc1ccccc1C2NC(=O)c1ccc([N+](=O)[O-])cc1 (stereo not drawn) | > 100 | > 100 | > 100 | > 100 | > 100 | > 100 | > 100 | > 100 | > 100 | 
CC1=C2c3c(C)ccc4ccc(C)c(c34)C2(O)C(C)C1=O (stereo not drawn) | 57.4 | 91.6 | > 100 | > 100 | 49.4 | 76 | > 100 | > 100 | > 100 | > 100
O=C/C(=C(/Br)I)c1ccccc1 | 4.86 | 1.13 | 2.3 | 7.97 | 10.6 | 15.2 | 2.6 | 29.2 | 3.41 | 6.11
COc1ccc(/C=C2\C[C@H]3[C@@H]4CCC5=C[C@@H](N6CCCC6)CC[C@]5(C)[C@H]4CC[C@]3(C)[C@H]2O)cc1 | 14.1 | 4.21 | 6.32 | 11.6 | 16.4 | 16.8 | 3.66 | 20.8 | 7.36 | 5.71
CC(C)(C)N(Cc1ccc2c(c1)OCO2)C(=O)/C=C\S(=O)c1ccccc1 (stereo not drawn) | 10.3 | 7.6 | > 27.7 | 5.78 | 6.44 | 10.2 | 22.8 | 10.2 | 2.14 | 6.6
CCCc1cc(=O)oc2c3c(c4c(c12)OC(C)(C)C=C4)O[C@@H](C)[C@H](C)C3=O | 29.6 | 33.4 | 41.6 | 45.2 | 45.4 | 35.4 | 25.7 | 61.1 | 29.8 | 37.4
CC1(c2nc3cc(Cl)c(Cl)cc3[nH]2)CCC(CO)C(C)(C)O1 (stereo not drawn) | 44.8 | 36.7 | > 100 | > 100 | 61.4 | 44.5 | 92 | > 100 | 30.3 | 70.5
Cc1ccc(-c2c(C#N)c(S)n(NS(=O)(=O)c3ccc(C)cc3)c(=O)c2C#N)cc1 | 47.8 | > 100 | > 100 |  | 41.8 | 77.9 | 61.2 | > 100 | 48.1 | 43.2
CCCCCCOc1ccc(C(=O)NOCc2ccccc2)cc1 | > 100 | > 100 | 67.4 | > 100 | > 100 | > 100 | > 100 | > 100 | > 100 | > 100
O=[N+]([O-])c1ccc(C2=NOC(c3ccccc3F)N2C23CC4CC(CC(C4)C2)C3)cc1 (stereo not drawn) | > 100 | > 100 | > 100 | > 100 | > 100 | > 100 | > 100 | > 100 | > 100 | > 100
O=[N+]([O-])c1cccc2nc3ccccc3c(NCCc3cccc[n+]3[O-])c12 | 0.0917 | 0.277 | 0.161 | 0.202 | 0.302 | 8.67 | < 0.01 | < 0.0277 | 0.157 | 0.194
CC1(C)CC(=O)C2=C(C1)c1c(ccc3ccccc13)NC2c1cn(Cc2ccc(Cl)cc2)c2ccccc12 (stereo not drawn) | > 100 | > 100 | > 100 | > 100 | > 100 | > 100 |  | > 100 | > 100 | > 100
CCNC1(c2cccc(C)c2)OC(C)(C)c2cccc3cccc1c23 (stereo not drawn) | 37.2 | 19.7 | 35.9 | 30.9 | 36.5 | 42.6 |  | 36.1 | 29.6 | 34.9
O=c1cc(N2CCOCC2)[nH]c(=O)n1-c1cccc(C(F)(F)F)c1 | > 100 | > 100 | > 100 | > 100 | > 100 | > 100 | > 100 | > 100 | > 100 | > 100
COc1ccc(-c2csc(=Nc3ccccc3)n2CC(O)c2ccc([N+](=O)[O-])cc2)cc1 (stereo not drawn) | > 100 | > 100 | > 100 | > 100 | > 100 | > 100 | > 100 | > 100 | > 100 | > 100
CN(C)CCNc1ccc2c(=O)n(CCN(C)C)c(=O)n3c4ccc([N+](=O)[O-])cc4c(=O)c1c23 | 2.66 | 0.417 | 0.581 | 3.33 | 3.99 | 2.1 | 2.66 | 6.54 | 0.263 | 1.68

Structure (SMILES) | TGI (BT-549 breast) [µM] | TGI (HL-60(TB) leukemia) [µM] | TGI (SR leukemia) [µM] | TGI (SF-268 CNS) [µM] | TGI (OVCAR-8 ovarian) [µM] | TGI (NCI/ADR-RES ovarian) [µM] | TGI (SK-MEL-28 melanoma) [µM] | TGI (DU-145 prostate) [µM] | TGI (NCI-H522 lung) [µM] | TGI (SF-539 CNS) [µM]
COc1ccc(N2C(=O)C3ON(C(C(N)=O)c4ccccc4)C(c4ccc(-c5ccccc5)cc4)C3C2=O)cc1 (stereo not drawn) | > 50 | > 50 | > 50 | > 50 | > 50 | > 50 | > 50 | > 50 | > 50 | > 50
Cc1cc(C)nc(NS(=O)(=O)c2ccc(Nc3c4ccccc4nc4c(C(=O)NCCCN(CCO)CCO)cccc34)cc2)n1 | 27.6 | 38.6 | > 100 | > 100 | > 100 | > 100 | 31.2 | > 100 | 28.2 | 
CN(NC(=O)CCCl)C1=NCCN1 | > 100 | > 100 | > 100 | > 100 | > 100 | > 100 | > 100 | > 100 | > 100 | > 100
C[C@H](Nc1c(O)c2c(c(O)c1Cl)C(=O)C=CC2=O)C(=O)Nc1ccc([N+](=O)[O-])cc1 | > 10 |  | > 10 | 5.79 | 5.54 | 5.05 | 4.02 | 3.22 | 6.65 | 4.2
Cc1cccc2c1Oc1cc(Cl)ccc1C2NC(=O)CCN1CCN(CCO)CC1 (stereo not drawn) | 37.5 | 39 | 45.1 | > 100 | 26.3 | 30.9 | 9.93 | 61.2 | 23.2 | 26
CN1CN(c2ccccc2)C2(CCN(CCCSc3ccccc3NC(=O)/C=C/c3ccccc3)CC2)C1=O | 12 | 23.8 | 12.3 | > 46 | 32.6 | 22.4 | 6.09 | 18.2 | 62.4 | 6.45
CCc1n[nH]c(=O)n1/N=C/c1ccccc1Cl | > 100 | > 100 | > 100 | > 100 | > 100 | > 100 | > 100 | > 100 | > 100 | > 100
S=C(N/N=C(/c1ccccc1)c1ccccn1)Nc1ccccc1Cl | 17.3 | 0.228 | 3.04 | 13.3 | 4.98 | 5.18 | 19.1 | 17.8 | 1.89 | 6.59
C=CCC(NC(=O)C(CC(=O)OC(C)(C)C)NC(=O)OC(C)(C)C)C(=O)OC (stereo not drawn) (Boc-Asp(OtBu)-[AllylGly]-OMe; configuration not given here) | > 100 | 85.5 | > 100 | > 100 | 26.6 | > 100 | > 100 | > 100 | > 100 | > 100
Cc1c(CCOC=O)c(=O)[nH]c2nncn12 | > 100 | > 100 | > 100 | > 100 | > 100 | > 100 | > 100 | > 100 | > 100 | > 100
CC(C)(C)c1ccc(-c2nc3ccc([N+](=O)[O-])cc3c(=O)o2)cc1 | 76.9 | 65.6 | 68.7 | > 100 | 83.9 | 79.8 | 97.1 | > 100 | 40.7 | 43.9
O=C1C(/C=C/c2ccc(Cl)cc2)=NNC2N1N=C1NC(=O)C3(NN12)c1ccccc1-c1ccccc13 (stereo not drawn) | > 100 | > 100 | 60.3 | > 100 | > 100 | > 100 | > 100 | > 100 | > 100 | > 100
C[C@]12CC[C@@H]3c4cc(OCC(F)(F)F)c(O)cc4C(=O)C[C@H]3[C@@H]1CC[C@@H]2O | > 100 | 4.68 | > 100 | > 100 | > 84.7 | > 31.3 | > 52.3 | > 100 | > 100 | 22.6
CC1(C2(C)OC(=O)c3ccccc32)OC(=O)c2ccccc21 (stereo not drawn) | > 100 | > 100 | > 100 | > 100 | > 100 | > 100 | > 100 | > 100 | > 100 | > 100
CC(C)C1(C)N=C(C(F)(F)F)c2cc(C(=O)C(F)(F)F)c3ccccc3c2N1 (stereo not drawn) | 10.7 | 23.3 | > 100 | 13.7 | 17.6 | 9.09 | 20.8 | 14.1 | 7.16 | 20.8
CC(OC(=O)NCn1cc(-c2ccccc2)nn1)c1ccccc1 (stereo not drawn) | > 100 | 75 | > 100 |  | > 100 | > 100 | > 100 | > 100 | > 100 | > 100
